ChEMBL document CHEMBL1201862, “PubChem BioAssay data set” (2004)
Active and inactive are the calls of the source.

Tests used:
[1] = tested on: Streptococcus sp. 'group A'; assay: Streptococcus pyogenes SK(-)GAS viability under kanamycin – luminescence, BacTiterGlo, confirmation, counter-screen for streptokinase expression inhibitor project, dose response (AID 1900); assay type: functional, organism-based
[2] = viability loss in HepG2 hepatoma cells – cell-based, ATP luminescence, cherry-pick, activator set 2, cytotoxicity control, dose response (AID 1053143); assay type: functional
[3] = cAMP pathway inhibition in counterscreen cell line – TR-FRET cAMP detection, counter-screen for MC4R biased antagonist project, dose response (AID 602305); assay type: functional, cell-based;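 note: U2OS cells stimulated with forskolin near its EC80 as the cAMP inducer; potency is for inhibition of forskolin-stimulated cAMP signaling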
[4] = tested on: CHO; assay: CHO cell viability loss, potency – luminescence, cytotoxicity control for TLR9-MyD88 binding inhibitor project, dose response (AID 588339); assay type: functional, cell-based, hamster; conditions: Cricetulus griseus;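 note: CHO cells stably coexpressing TLR9 and MyD88 fusions from primary screen; compound exposure lasted 48 hours before viability readout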
[5] = loss of viability in HepG2 cells – cell-based, CellTiter-Glo, cherry-picked, cytotoxicity control for Shn3 inhibitor project, dose response (AID 624134); assay type: functional
[6] = non-specific 3'UTR reporter inhibition in Clone20-Shn3RL – cell-based, Renilla luciferase, cherry-picked, counter-screen for Shn3 inhibitor project, dose response (AID 624133); assay type: functional
[7] = molecular target: T1, Apoptotic protease-activating factor 1 (Homo sapiens, UniProt O14727); assay type: functional
T1 sequence (O14727 whole entry): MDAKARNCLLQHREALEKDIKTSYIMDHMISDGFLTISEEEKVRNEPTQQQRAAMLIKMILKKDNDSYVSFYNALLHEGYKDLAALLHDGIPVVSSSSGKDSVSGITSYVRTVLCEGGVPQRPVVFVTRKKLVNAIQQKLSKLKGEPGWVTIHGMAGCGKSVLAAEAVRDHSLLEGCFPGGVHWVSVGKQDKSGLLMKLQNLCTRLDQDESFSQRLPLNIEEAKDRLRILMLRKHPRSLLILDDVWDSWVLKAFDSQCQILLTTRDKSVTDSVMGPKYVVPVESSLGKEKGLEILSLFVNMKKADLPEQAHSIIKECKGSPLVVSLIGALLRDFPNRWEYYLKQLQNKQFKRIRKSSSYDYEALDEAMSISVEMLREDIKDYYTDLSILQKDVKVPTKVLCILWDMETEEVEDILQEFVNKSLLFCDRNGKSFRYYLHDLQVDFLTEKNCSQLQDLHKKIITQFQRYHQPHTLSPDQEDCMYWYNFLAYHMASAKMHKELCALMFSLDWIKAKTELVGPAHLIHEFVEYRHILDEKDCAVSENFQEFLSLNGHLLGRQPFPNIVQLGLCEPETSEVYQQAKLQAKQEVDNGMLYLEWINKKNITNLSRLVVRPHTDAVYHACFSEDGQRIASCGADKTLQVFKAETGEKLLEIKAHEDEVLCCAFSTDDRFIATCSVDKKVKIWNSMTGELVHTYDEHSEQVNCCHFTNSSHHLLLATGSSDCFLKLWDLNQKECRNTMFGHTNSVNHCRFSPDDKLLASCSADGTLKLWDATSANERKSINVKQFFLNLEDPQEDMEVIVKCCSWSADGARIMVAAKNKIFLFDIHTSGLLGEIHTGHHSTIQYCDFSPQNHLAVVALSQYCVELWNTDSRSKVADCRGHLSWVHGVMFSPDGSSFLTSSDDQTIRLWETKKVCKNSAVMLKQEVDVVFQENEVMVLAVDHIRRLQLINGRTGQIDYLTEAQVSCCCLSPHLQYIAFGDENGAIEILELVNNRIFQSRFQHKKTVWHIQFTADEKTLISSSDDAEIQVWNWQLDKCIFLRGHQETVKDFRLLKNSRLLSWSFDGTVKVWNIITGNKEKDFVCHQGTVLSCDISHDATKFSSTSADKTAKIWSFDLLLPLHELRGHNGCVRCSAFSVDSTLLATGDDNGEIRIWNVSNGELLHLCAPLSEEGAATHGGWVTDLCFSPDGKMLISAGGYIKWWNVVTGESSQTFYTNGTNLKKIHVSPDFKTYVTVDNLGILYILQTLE

SMILES: CC(=O)c1cccc2c1N=C(c1[nH]c3ccccc3c1O)C2=O
- EC50 [1]: 3.8 µM (active)
- AC50 [2]: 22.4 µM (active)

SMILES: CCC1CCCCN1S(=O)(=O)c1ccc(NC(=O)c2nc(S(C)(=O)=O)ncc2Cl)cc1 (configuration not stated)
- IC50 [3]: > 64.6 µM (inactive)
- IC50 [4]: 1.91 µM (active)
- AC50 [5]: 17 µM (active)
- AC50 [6]: 2.46 µM (active)

SMILES: CCCC[n+]1ccn(C2=C([N-]S(=O)(=O)c3ccc(Cl)cc3)C(=O)c3ccccc3C2=O)c1
- IC50 [7]: 19.3 µM (active)
